These results are taken from patent publication US20220211795A1 (Chenland Nutritionals Inc., priority 2021, published 2022).

Series [1] is described as follows: Potential detection (zeta potential). Format: physicochemical.
Another series relates to glioma GL261 cells. The series can be described thus: Cytotoxicity experiment (CCK8). Type of series: cell-based. The following applies: 1.172-150 μg/mL, 4 h drug then 20 h culture. On the procedure: Gl261 cells in logarithmic growth phase are uniformly inoculated into sterile 96-well plates with 2×10^3 cells per well, and no cells are seeded around the plates, then 100 μL […] is added into each well and cultured under the condition of 37° C. and 5% CO2 for 24 h; remove the culture medium and add 100 μL of drug-containing medium (concentration gradient set at […], 75.000 μg/mL, 37.500 μg/mL, 18.750 μg/mL, 9.375 μg/mL, 4.688 μg/mL, 2.344 μg/mL, and 1.172 μg/mL), the drug-containing medium is removed after culture for 4 h, and 100 μL of medium is added to each well for further culture for 20 h. The culture medium is removed, and culture medium containing 10% CCK8 is added. After incubation for 1 h, the absorbance is measured with a microplate reader, and the cell viability is determined by the following formula […].

Another series in a line: Particle size detection. Type of series: physicochemical. The text has this:
1.2 Particle Size Detection

`COc1cc(/C=C/C(=O)CC(=O)/C=C/c2ccc(O)c(OC)c2)ccc1O` [Free Curcumin, Curcumin]: the Average zeta potential in series [1] is −36.5 mv. In addition, in the series on glioma GL261 cells, the “toxicity to GL261 cells” value is “no obvious toxicity”. The same compound gave a PDI in the series “Particle size detection” of 0.545. The same compound gave a Hydrodynamic diameter in the series “Particle size detection” (0.0309 g curcumin+10 ml water suspension) of 4.053 μm.
